Data reported in US20240317725A1, “LPA1 SMALL MOLECULE ANTAGONIST” (TUOJIE BIOTECH (SHANGHAI) CO., LTD., priority 2021, published 2024).

molecular target: T1, human lysophosphatidic acid receptor 1 (LPAR1) (Homo sapiens, UniProt Q92633); experiment: FLIPR test of antagonist properties: inhibition of LPA-induced intracellular calcium elevation in CHO-K1 cells expressing hLPAR1; assay type: cell-based; details: FLIPR calcium assay, CHO-K1/LPA1R cells, LPA at EC80
T1 construct: host or cells: CHO-K1 (Chinese hamster ovary K1) cells, CHO-K1/LPA1R, kept under hygromycin B selection
T1 sequence (Q92633 whole entry): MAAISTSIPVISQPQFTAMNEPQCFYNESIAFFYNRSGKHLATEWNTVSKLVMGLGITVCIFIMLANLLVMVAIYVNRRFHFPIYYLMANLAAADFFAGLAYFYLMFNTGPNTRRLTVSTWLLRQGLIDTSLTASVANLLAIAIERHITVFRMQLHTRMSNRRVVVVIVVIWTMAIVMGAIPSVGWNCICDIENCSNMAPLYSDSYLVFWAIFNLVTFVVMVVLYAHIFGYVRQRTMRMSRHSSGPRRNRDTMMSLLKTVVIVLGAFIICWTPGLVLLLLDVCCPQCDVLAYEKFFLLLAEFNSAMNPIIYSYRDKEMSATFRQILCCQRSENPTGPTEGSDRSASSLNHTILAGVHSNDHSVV
Method: The antagonist properties of the compounds of the present disclosure were tested using the FLIPR (fluorometric imaging plate reader) method. The compounds are inhibitors of intracellular calcium elevation induced by activation of hLPARI (human lysophosphatidic acid receptor 1) expressed in CHO-K1 cells (Chinese hamster ovary K1 cells, HDB).
2.1. Reaction buffer: HBSS+20 mM HEPES+0.1% fatty acid-free BSA+0.001% F-127
2.2. 50×Red dye: (a red dye for blocking background signals in cells) prepared by: weighing out 4 g of tartrazine and 10.2 g of acid red and dissolving them in 100 mL of H2O.
2.3. Fluo-8 staining mixture: 4 mL of reaction buffer, 32 μL of fluo-8, 320 μL of 50×Red dye, and 40 μL of probenecid.
3.1. LPA: dissolved in DPBS (containing 0.1% fatty acid-free BSA) to prepare a 0.8 μM stock solution, and the solution was aliquoted and stored at −20° C.
3.2. Test compound preparation: The test compounds were dissolved in DMSO to prepare 10 mM stock solutions, and the solutions were stored at −20° C. In the experiment, the compounds were first gradient-diluted with DMSO (initial concentration of 50 μM, 3-fold dilution, 10 points) to prepare 200×compound solutions. The compound solutions were then diluted with reaction buffer to give 5×compound solutions, and the solutions were transferred to a 384-well plate (Cat. No. 6008590) using Bravo.
4.1. CHO-K1/LPA1R cells were cultured in a cell culture medium (F-12+10% FBS+400 μg/mL hygromycin B).
4.2. When the cell confluence reached 80%, the cells were digested with 0.25% pancreatin.
4.3. When the cells became round, the digestion was stopped with the medium F-12 (10% FBS), and the cells were counted. Then the cell culture was diluted with F-12 (10% FBS) to give a cell suspension with a density of 6.7×10^5 cells/mL.
4.4. The cell suspension was added to a 384-well black cell culture plate at 30 µL/well using a Multidrop auto-dispenser, and the plate was incubated in a 37° C., 5% CO2 incubator for 20-24 h. The medium was changed to a serum-free F-12 medium, and the cells were starved for 24 h.
4.5. Dose experiment for testing LPA. Gradient dilutions of 6×LPA solution (initial concentration of 60 μM, 3-fold dilution, 10 points) were prepared with reaction buffer. The medium in the 384-well black cell culture plate was discarded and changed to reaction buffer. 10 μL of 5% DMSO reaction buffer was added, and 10 μL of Fluo-8 staining mixture was then added. The plate was incubated in the dark in a 37° C., 5% CO2 incubator for 0.5 h.
4.6. FLIPR was correspondingly programmed, the 6×LPA gradient solutions were added, and readings were taken. Two-minute data were collected.
4.7. A reaction curve was obtained from the numerical values of LPA, and the concentration of LPA at EC80 was calculated. A 6×LPA solution was prepared in a 384-well plate (Cat. No. 6008590), and HPE and ZPE were added to corresponding wells. HPE (one hundred per cent effect) was 60 μM LPA, and ZPE (zero per cent effect) was reaction buffer.
4.8. Testing of compounds. The medium in the 384-well black cell culture plate was discarded and changed to reaction buffer. 10 μL of 5×compound solution was transferred using Bravo, and then 10 μL of Fluo-8 staining mixture was added immediately. The plate was incubated in the dark in a 37° C., 5% CO2 incubator for 0.5 h.
4.9. FLIPR was correspondingly programmed, the 6×LPA solution was added, and readings were taken. Two-minute data were collected.
4.10. Finally, the output fluorescence counts were analyzed, and IC50 was calculated for the compounds.

SMILES | IC50 [nM]
COCc1ccnc(OCc2c(-c3ccc(OC4CC5CCC(C)(C(=O)O)C5C4)c(C)n3)nnn2C)n1 (single isomer, unassigned) [Compound 14-P1, 5-((6-(5-(((4-(Methoxymethyl)pyrimidin-2-yl)oxy)methyl)-1-methyl-1H-1,2,3-triazol-4-yl)-2-methylpyridin-3-yl)oxy)-1-methyloctahydropentalene-1-carboxylic acid] | 41.5
CCCN(C)C(=O)OCc1c(-c2ccc(O[C@H]3CCC[C@H](C(=O)O)C3)c(C)n2)nnn1C [BMS986278, reference compound] | 60.6
Cc1nc(-c2nnn(C)c2COc2nccc(C(F)(F)F)n2)ccc1OC1CC2CCC(C(=O)O)C2C1 (stereo not shown) [Compound 1, 5-((2-Methyl-6-(1-methyl-5-(((4-(trifluoromethyl)pyrimidin-2-yl)oxy)methyl)-1H-1,2,3-triazol-4-yl)pyridin-3-yl)oxy)octahydropentalene-1-carboxylic acid] | 16.7
Cc1nc(-c2nnn(C)c2COc2nccc(C(F)(F)F)n2)ccc1O[C@H]1CCC[C@H](C(=O)O)C1 [Compound 12, (1S,3S)-3-((2-Methyl-6-(1-methyl-5-(((4-(trifluoromethyl)pyrimidin-2-vl)oxy)methyl)-1H-1,2,3-triazol-4-yl)pyridin-3-yl)oxy)cyclohexane-1-carboxylic acid] | 75

Next, values leading:

IC50 [nM] | SMILES
> 10000 | COCc1ccnc(OCc2c(-c3ccc(OC4CC5CCC(C)(C(=O)O)C5C4)c(C)n3)nnn2C)n1 (single isomer, unassigned) [Compound 14-P2, 5-((6-(5-(((4-(Methoxymethyl)pyrimidin-2-yl)oxy)methyl)-1-methyl-1H-1,2,3-triazol-4-yl)-2-methylpyridin-3-yl)oxy)-1-methyloctahydropentalene-1-carboxylic acid]
39.6 | Cc1nc(-c2nnn(C)c2COc2nccc(C(F)F)n2)ccc1OC1CC2CCC(F)(C(=O)O)C2C1 (stereo not shown) [Compound 6, 5-((6-(5-(((4-(Difluoromethyl)pyrimidin-2-yl)oxy)methyl)-1-methyl-1H-1,2,3-triazol-4-yl)-2-methylpyridin-3-yl)oxy)-1-fluorooctahydropentalene-1-carboxylic acid]
93.9 | Cc1nc(-c2nnn(C)c2COc2nccc(C(F)F)n2)ccc1OC1CC2CCC(C(=O)O)C2C1 (stereo not shown) [Compound 7, 5-((6-(5-(((4-(Difluoromethyl)pyrimidin-2-yl)oxy)methyl)-1-methyl-1H-1,2,3-triazol-4-yl)-2-methylpyridin-3-yl)oxy)octahydropentalene-1-carboxylic acid]
